Here are results for twelve substances from the OligoGym collection.

HELM strings list units from the 5' end as sugar, base in round brackets, then linkage (d deoxyribose, r ribose, m 2'-O-methyl, p phosphodiester). Strings are as the collection lists them, not checked against the first reports. ss, as = sense and antisense strand; [lna] = locked nucleic acid (LNA); [fl2r] = 2'-fluoro
Further: test system not given here.

The conditions of this series: siRNA.
“RNA1{[fl2r](G)p.m(A)p.[fl2r](C)p.m(G)p.[fl2r](U)p.m(A)p.[fl2r](A)p.m(A)p.[fl2r](C)p.m(G)p.[fl2r](G)p.m(C)p.[fl2r](C)p.m(A)p.[fl2r](C)p.m(A)p.[fl2r](A)p.m(G)p.[fl2r](U)p.m(U)p.[fl2r](C)}|RNA2{r(A)p.m(C)p.r(U)p.r(U)p.r(G)p.r(U)p.r(G)p.r(G)p.r(C)p.r(C)p.r(G)p.r(U)p.r(U)p.r(U)p.r(A)p.r(C)p.r(G)p.r(U)p.r(C)p.r(G)p.r(C)}$$$RNA1{StrandType:ss}|RNA2{StrandType:as}$”: the target mRNA knockdown was determined as 46.2%.
For the substance “RNA1{[fl2r](G)p.m(A)p.[fl2r](C)p.m(G)p.[fl2r](U)p.m(A)p.[fl2r](A)p.m(A)p.[fl2r](C)p.m(G)p.[fl2r](G)p.m(C)p.[fl2r](C)p.m(A)p.[fl2r](C)p.m(A)p.[fl2r](A)p.m(G)p.[fl2r](U)p.m(U)p.[fl2r](C)}|RNA2{r(A)p.r(C)p.[lna](T)p.r(U)p.r(G)p.[lna](T)p.r(G)p.r(G)p.r(C)p.r(C)p.r(G)p.r(U)p.r(U)p.[lna](T)p.r(A)p.r(C)p.r(G)p.[lna](T)p.r(C)p.[lna](G)p.[lna](C)}$$$RNA1{StrandType:ss}|RNA2{StrandType:as}$”, the target mRNA knockdown came out at 1.5%.
With “RNA1{[fl2r](G)p.m(A)p.[fl2r](C)p.m(G)p.[fl2r](U)p.m(A)p.[fl2r](A)p.m(A)p.[fl2r](C)p.m(G)p.[fl2r](G)p.m(C)p.[fl2r](C)p.m(A)p.[fl2r](C)p.m(A)p.[fl2r](A)p.m(G)p.[fl2r](U)p.m(U)p.[fl2r](C)}|RNA2{r(A)p.r(C)p.r(U)p.r(U)p.r(G)p.r(U)p.r(G)p.r(G)p.r(C)p.r(C)p.r(G)p.r(U)p.r(U)p.r(U)p.r(A)p.r(C)p.r(G)p.r(U)p.[lna](C)p.[lna](G)p.r(C)}$$$RNA1{StrandType:ss}|RNA2{StrandType:as}$” the figure was 84.4%; with “RNA1{[fl2r](G)p.m(A)p.[fl2r](C)p.m(G)p.[fl2r](U)p.m(A)p.[fl2r](A)p.m(A)p.[fl2r](C)p.m(G)p.[fl2r](G)p.m(C)p.[fl2r](C)p.m(A)p.[fl2r](C)p.m(A)p.[fl2r](A)p.m(G)p.[fl2r](U)p.m(U)p.[fl2r](C)}|RNA2{r(A)p.r(C)p.r(U)p.r(U)p.r(G)p.r(U)p.r(G)p.r(G)p.r(C)p.r(C)p.r(G)p.r(U)p.r(U)p.r(U)p.r(A)p.r(C)p.r(G)p.r(U)p.r(C)p.r(G)p.r(C)}$$$RNA1{StrandType:ss}|RNA2{StrandType:as}$”, 87.3%.
With “RNA1{[fl2r](G)p.r(A)p.[fl2r](C)p.r(C)p.[fl2r](A)p.r(C)p.[fl2r](G)p.r(A)p.[fl2r](A)p.r(G)p.[fl2r](A)p.r(G)p.[fl2r](U)p.r(U)p.[fl2r](A)p.r(A)p.[fl2r](C)p.r(C)p.[fl2r](C)p.r(T)p.r(T)}|RNA2{r(G)p.r(G)p.r(G)p.r(U)p.r(U)p.r(A)p.r(A)p.r(C)p.r(U)p.r(C)p.r(U)p.r(U)p.r(C)p.r(G)p.r(U)p.r(G)p.r(G)p.r(U)p.r(C)p.r(T)p.r(T)}$$$RNA1{StrandType:ss}|RNA2{StrandType:as}$” the figure was 51%; with “RNA1{[fl2r](G)p.r(A)p.[fl2r](G)p.r(U)p.[fl2r](A)p.r(U)p.[fl2r](U)p.r(U)p.[fl2r](C)p.r(C)p.[fl2r](G)p.r(C)p.[fl2r](U)p.r(G)p.[fl2r](G)p.r(A)p.[fl2r](A)p.r(C)p.[fl2r](U)p.r(T)p.r(T)}|RNA2{r(A)p.r(G)p.r(U)p.r(U)p.r(C)p.r(C)p.r(A)p.r(G)p.r(C)p.r(G)p.r(G)p.r(A)p.r(A)p.r(A)p.r(U)p.r(A)p.r(C)p.r(U)p.r(C)p.r(T)p.r(T)}$$$RNA1{StrandType:ss}|RNA2{StrandType:as}$”, 21%; with “RNA1{[fl2r](G)p.r(C)p.[fl2r](C)p.r(U)p.[fl2r](C)p.r(U)p.[fl2r](C)p.r(U)p.[fl2r](A)p.r(U)p.[fl2r](C)p.r(C)p.[fl2r](U)p.r(U)p.[fl2r](A)p.r(G)p.[fl2r](C)p.r(U)p.r(U)p.r(T)p.r(T)}|RNA2{r(A)p.r(A)p.r(G)p.r(C)p.r(U)p.r(A)p.[fl2r](A)p.r(G)p.r(G)p.r(A)p.r(U)p.[fl2r](A)p.r(G)p.r(A)p.r(G)p.r(A)p.r(G)p.r(G)p.r(C)p.r(T)p.r(T)}$$$RNA1{StrandType:ss}|RNA2{StrandType:as}$”, 34%.
In the case of “RNA1{[fl2r](G)p.r(C)p.[fl2r](U)p.r(A)p.[fl2r](C)p.r(C)p.[fl2r](G)p.r(C)p.[fl2r](A)p.r(A)p.[fl2r](C)p.r(C)p.[fl2r](A)p.r(C)p.[fl2r](G)p.r(A)p.[fl2r](G)p.r(C)p.[fl2r](U)p.r(T)p.r(T)}|RNA2{r(A)p.r(G)p.r(C)p.r(U)p.r(C)p.r(G)p.r(U)p.r(G)p.r(G)p.r(U)p.r(U)p.r(G)p.r(C)p.r(G)p.r(G)p.r(U)p.r(A)p.r(G)p.r(C)p.r(T)p.r(T)}$$$RNA1{StrandType:ss}|RNA2{StrandType:as}$” it was 21%.
Substance “RNA1{[fl2r](G)p.r(C)p.[fl2r](U)p.r(G)p.[fl2r](A)p.r(A)p.[fl2r](C)p.r(U)p.[fl2r](A)p.r(G)p.[fl2r](U)p.r(C)p.[fl2r](G)p.r(A)p.[fl2r](A)p.r(A)p.[fl2r](G)p.r(A)p.[fl2r](A)p.r(T)p.r(T)}|RNA2{r(U)p.r(U)p.r(C)p.r(U)p.r(U)p.r(U)p.r(C)p.r(G)p.[fl2r](A)p.r(C)p.r(U)p.[fl2r](A)p.r(G)p.r(U)p.r(U)p.r(C)p.[fl2r](A)p.r(G)p.r(C)p.r(T)p.r(T)}$$$RNA1{StrandType:ss}|RNA2{StrandType:as}$” yielded a target mRNA knockdown of 49%.
“RNA1{[fl2r](G)p.r(C)p.[fl2r](U)p.r(G)p.[fl2r](U)p.r(A)p.[fl2r](A)p.r(C)p.[fl2r](C)p.r(U)p.[fl2r](C)p.r(G)p.[fl2r](G)p.r(A)p.[fl2r](G)p.r(A)p.[fl2r](G)p.r(U)p.r(U)p.r(T)p.r(T)}|RNA2{r(A)p.r(A)p.r(C)p.r(U)p.r(C)p.r(U)p.r(C)p.r(C)p.r(G)p.r(A)p.r(G)p.r(G)p.r(U)p.r(U)p.r(A)p.r(C)p.r(A)p.r(G)p.r(C)p.r(T)p.r(T)}$$$RNA1{StrandType:ss}|RNA2{StrandType:as}$” yielded a target mRNA knockdown of 51%.
In the case of “RNA1{[fl2r](G)p.r(C)p.[fl2r](U)p.r(U)p.[fl2r](C)p.r(G)p.[fl2r](G)p.r(A)p.[fl2r](A)p.r(A)p.[fl2r](C)p.r(U)p.[fl2r](G)p.r(G)p.[fl2r](A)p.r(C)p.[fl2r](A)p.r(U)p.[fl2r](C)p.r(T)p.r(T)}|RNA2{[fl2r](G)p.r(A)p.r(U)p.[fl2r](G)p.r(U)p.r(C)p.r(C)p.r(A)p.[fl2r](G)p.r(U)p.r(U)p.r(U)p.r(C)p.r(C)p.[fl2r](G)p.r(A)p.r(A)p.[fl2r](G)p.r(C)p.r(T)p.r(T)}$$$RNA1{StrandType:ss}|RNA2{StrandType:as}$” it was 29%.
With “RNA1{[fl2r](G)p.r(G)p.[fl2r](A)p.r(A)p.[fl2r](G)p.r(A)p.[fl2r](A)p.r(G)p.[fl2r](A)p.r(U)p.[fl2r](A)p.r(G)p.[fl2r](A)p.r(G)p.[fl2r](C)p.r(A)p.[fl2r](U)p.r(C)p.[fl2r](C)p.r(T)p.r(T)}|RNA2{r(G)p.r(G)p.r(A)p.[fl2r](U)p.r(G)p.r(C)p.r(U)p.r(C)p.[fl2r](U)p.r(A)p.r(U)p.r(C)p.r(U)p.r(U)p.r(C)p.r(U)p.r(U)p.r(C)p.r(C)p.r(T)p.r(T)}$$$RNA1{StrandType:ss}|RNA2{StrandType:as}$” the figure was 13%.
